Structures can show the parent of a compound that is named as a salt.
Columns and labels:
Assay in all cases: MIC, NCCLS broth microdilution
Type in all cases: cell-based
Acinetobacter sp. J2 = details: for MIC of antibiotic / MIC of antibiotic at fixed inhibitor concentration of 4 mg/L: Acinetobacter baumannii J2; for MIC of antibiotic: antibiotic alone, no inhibitor
[1] = tested on: Pseudomonas aeruginosa MK1184; details: for MIC of antibiotic: antibiotic alone, no inhibitor
[2] = tested on: Pseudomonas aeruginosa 1973E; details: for MIC of antibiotic: antibiotic alone, no inhibitor
Method: Antimicrobial activity of the compounds and of their combinations was determined against a selection of organisms according to the standard procedures described by the National Committee for Clinical Laboratory Standards (National Committee for Clinical Laboratory. Standards (2000). Methods for Dilution Antimicrobial Susceptibility Tests for Bacteria That Grow Aerobically-Fifth Edition: Approved Standard M7-A5. NCCLS, Wayne, Pa., USA).
In all cases the final concentration of DMSO incubated with the bacteria is less than or equal to 1%. […] Plates were incubated overnight at an appropriate temperature (30° C. or 37° C.) and optical densities assessed by eye. The MIC value is defined as the lowest compound concentration completely inhibiting visible growth of the test organism. When combinations between compounds of formula I with compounds of formula II and are evaluated the compounds of formula I are tested in dilution series as described above while the compounds of formula II and III-XIII were present in all wells at a constant concentration of 4 μg/mL each.

Enterobacter cloacae P99 = details: for MIC of antibiotic: antibiotic alone, no inhibitor
[3] = tested on: Klebsiella pneumoniae CF104; details: for MIC of antibiotic: antibiotic alone, no inhibitor
Serratia marcescens S6 = details: for MIC of antibiotic: antibiotic alone, no inhibitor
[4] = tested on: Stenotrophomonas malthophilia 1AC736; details: for MIC of antibiotic / MIC of antibiotic at fixed inhibitor concentration of 4 mg/L: Stenotrophomonas maltophilia 1AC736; for MIC of antibiotic: antibiotic alone, no inhibitor
[5] = MIC of antibiotic compound 1 with the labelled bridged monobactam of formula II and clavulanate, 4 mg/L each

SMILES	MIC of antibiotic (Acinetobacter sp. J2)	MIC of antibiotic at fixed inhibitor concentration of 4 mg/L (Acinetobacter sp. J2; with 102 and clavulanate)	MIC of antibiotic [1]	MIC of antibiotic at fixed inhibitor concentration of 4 mg/L ([1]; with 102 and clavulanate)	MIC of antibiotic [2]	MIC of antibiotic at fixed inhibitor concentration of 4 mg/L ([2]; with 102 and clavulanate)	MIC of antibiotic (Enterobacter cloacae P99)	MIC of antibiotic at fixed inhibitor concentration of 4 mg/L (Enterobacter cloacae P99; with 102 and clavulanate)	MIC of antibiotic [3]	MIC of antibiotic at fixed inhibitor concentration of 4 mg/L ([3]; with 102 and clavulanate)	MIC of antibiotic (Serratia marcescens S6)	MIC of antibiotic at fixed inhibitor concentration of 4 mg/L (Serratia marcescens S6; with 102 and clavulanate)	MIC of antibiotic [4]	MIC of antibiotic at fixed inhibitor concentration of 4 mg/L ([4]; with 102 and clavulanate)	MIC of antibiotic at fixed inhibitor concentration of 4 mg/L (Acinetobacter sp. J2; with 324 and clavulanate)	MIC of antibiotic at fixed inhibitor concentration of 4 mg/L ([1]; with 324 and clavulanate)	MIC of antibiotic at fixed inhibitor concentration of 4 mg/L ([2]; with 324 and clavulanate)	MIC of antibiotic at fixed inhibitor concentration of 4 mg/L (Enterobacter cloacae P99; with 324 and clavulanate)	MIC of antibiotic at fixed inhibitor concentration of 4 mg/L ([3]; with 324 and clavulanate)	MIC of antibiotic at fixed inhibitor concentration of 4 mg/L (Serratia marcescens S6; with 324 and clavulanate)	other results
C[C@H]1[C@H](NC(=O)/C(=N\OCc2cc(=O)c(O)cn2O)c2nc(N)sc2Cl)C(=O)N1OS(=O)(=O)O [Compound 29, (3S,4S)-3-{(2Z)-2-(2-amino-5-chloro(1,3-thiazol-4-yl))-3-[(1,5-dihydroxy-4-oxo(2-hydropyridyl))methoxy]-3-azaprop-2-enoylamino}-4-methyl-2-oxoazetidinyl hydroxysulfonate]	>32 µg/mL	>32 µg/mL	>32 µg/mL	8 µg/mL	4 µg/mL	8 µg/mL	>32 µg/mL	0.25 µg/mL	>32 µg/mL	0.5 µg/mL	32 µg/mL	1 µg/mL	1 µg/mL	0.5 µg/mL							MIC of antibiotic at fixed inhibitor concentration of 4 mg/L (Acinetobacter sp. J2; with 102 and sulbactam): 2 µg/mL; MIC of antibiotic at fixed inhibitor concentration of 4 mg/L (Acinetobacter sp. J2; with 323 and sulbactam): 2 µg/mL; MIC of antibiotic at fixed inhibitor concentration of 4 mg/L ([1]; with 102 and sulbactam): 4 µg/mL; MIC of antibiotic at fixed inhibitor concentration of 4 mg/L ([1]; with 323 and sulbactam): 8 µg/mL; MIC of antibiotic at fixed inhibitor concentration of 4 mg/L ([2]; with 102 and sulbactam): 8 µg/mL; MIC of antibiotic at fixed inhibitor concentration of 4 mg/L ([2]; with 323 and sulbactam): 8 µg/mL; MIC of antibiotic at fixed inhibitor concentration of 4 mg/L (Enterobacter cloacae P99; with 102 and sulbactam): 8 µg/mL; MIC of antibiotic at fixed inhibitor concentration of 4 mg/L (Enterobacter cloacae P99; with 323 and sulbactam): 8 µg/mL; MIC of antibiotic at fixed inhibitor concentration of 4 mg/L ([3]; with 102 and sulbactam): 2 µg/mL; MIC of antibiotic at fixed inhibitor concentration of 4 mg/L ([3]; with 323 and sulbactam): 2 µg/mL; MIC of antibiotic at fixed inhibitor concentration of 4 mg/L (Serratia marcescens S6; with 102 and sulbactam): 8 µg/mL; MIC of antibiotic at fixed inhibitor concentration of 4 mg/L (Serratia marcescens S6; with 323 and sulbactam): 8 µg/mL; MIC of antibiotic at fixed inhibitor concentration of 4 mg/L ([4]; with 102 and sulbactam): 1 µg/mL; MIC of antibiotic at fixed inhibitor concentration of 4 mg/L ([4]; with 323 and sulbactam): 1 µg/mL
CC1(C)C(NC(=O)C(=NOCc2cc(=O)c(O)cn2O)c2nsc(N)n2)C(=O)N1OS(=O)(=O)O (centres unmarked) [Compound 32]	>32 µg/mL	4 µg/mL	4 µg/mL	4 µg/mL	16 µg/mL	8 µg/mL	32 µg/mL	8 µg/mL	>32 µg/mL	1 µg/mL	0.5 µg/mL	0.25 µg/mL	0.5 µg/mL	0.5 µg/mL	8 µg/mL	4 µg/mL	8 µg/mL	4 µg/mL	2 µg/mL	0.25 µg/mL	MIC of antibiotic at fixed inhibitor concentration of 4 mg/L ([4]; with 324 and clavulanate): 0.5 µg/mL
CC1(C)C(NC(=O)C(=NOCc2cc(=O)c(O)cn2O)c2csc(N)n2)C(=O)N1OCC(=O)O (centres unmarked) [Compound 33]	>32 µg/mL	16 µg/mL	32 µg/mL	16 µg/mL	32 µg/mL	16 µg/mL	32 µg/mL	4 µg/mL	2 µg/mL	0.5 µg/mL	0.5 µg/mL	0.25 µg/mL	2 µg/mL	2 µg/mL	8 µg/mL	32 µg/mL	16 µg/mL	16 µg/mL	0.5 µg/mL	0.25 µg/mL	MIC of antibiotic at fixed inhibitor concentration of 4 mg/L ([4]; with 324 and clavulanate): 2 µg/mL
NC(=O)OCC1C(NC(=O)C(=NOCc2cc(=O)c(O)cn2O)c2csc(N)n2)C(=O)N1OCC(=O)O (centres unmarked) [Compound 41]	16 µg/mL	16 µg/mL	4 µg/mL	4 µg/mL	4 µg/mL	4 µg/mL	>32 µg/mL	16 µg/mL	>32 µg/mL	0.5 µg/mL	1 µg/mL	0.5 µg/mL	1 µg/mL	2 µg/mL	4 µg/mL	4 µg/mL	8 µg/mL	16 µg/mL	0.5 µg/mL	0.5 µg/mL	MIC of antibiotic at fixed inhibitor concentration of 4 mg/L ([4]; with 324 and clavulanate): 1 µg/mL
NC(=O)OCC1C(NC(=O)C(=NOCc2cc(=O)c(O)cn2O)c2nc(N)sc2Cl)C(=O)N1OS(=O)(=O)O (centres unmarked) [Compound 47]	>32 µg/mL	>32 µg/mL	4 µg/mL	2 µg/mL	8 µg/mL	4 µg/mL	>32 µg/mL	16 µg/mL	>32 µg/mL	4 µg/mL	2 µg/mL	2 µg/mL	1 µg/mL	1 µg/mL	>32 µg/mL	4 µg/mL	8 µg/mL	32 µg/mL	2 µg/mL	2 µg/mL	MIC of antibiotic at fixed inhibitor concentration of 4 mg/L ([4]; with 324 and clavulanate): 1 µg/mL
NC(=O)OC[C@@H]1[C@H](NC(=O)/C(=N\OCc2cc(=O)c(O)cn2O)c2nsc(N)n2)C(=O)N1OS(=O)(=O)O [Compound 48, ((2S,3S)-3-{(2Z)-2-(5-amino(1,2,4-thiadiazol-3-yl))-3-[(1,5-dihydroxy-4-oxo(2-hydropyridyl))methoxy]-3-azaprop-2-enoylamino}-1-(hydroxysulfonyloxy)-4-oxoazetidin-2-yl)methyl aminooate]	>32 µg/mL	>32 µg/mL	4 µg/mL	2 µg/mL	8 µg/mL	4 µg/mL	>32 µg/mL	32 µg/mL	>32 µg/mL	2 µg/mL	8 µg/mL	2 µg/mL	4 µg/mL	4 µg/mL	>32 µg/mL	2 µg/mL	8 µg/mL	16 µg/mL	4 µg/mL	2 µg/mL	MIC of antibiotic at fixed inhibitor concentration of 4 mg/L ([4]; with 324 and clavulanate): 2 µg/mL
CNC(=O)c1ccc[n+](CC(=O)N2CC[C@@H]3[C@H]2C(=O)N3S(=O)(=O)[O-])c1 [Compound 101, (1S,5R)-2-{2-[3-(N-methylcarbamoyl)pyridinium]acetyl}-7-oxo-2,6-diazabicyclo[3.2.0]heptane-6-sulfonate, inner salt]																					MIC of antibiotic at fixed inhibitor concentration (4 mg/L) (Acinetobacter sp. J2; Acinetobacter sp. J2, MIC of antibiotic compound 1 with the labelled bridged monobactam of formula II and clavulanate, 4 mg/L each): >32 µg/mL; MIC of antibiotic at fixed inhibitor concentration (4 mg/L) [1, 5]: 8 µg/mL; MIC of antibiotic at fixed inhibitor concentration (4 mg/L) [2, 5]: 4 µg/mL; MIC of antibiotic at fixed inhibitor concentration (4 mg/L) (Enterobacter cloacae P99; [5]): 32 µg/mL; MIC of antibiotic at fixed inhibitor concentration (4 mg/L) [3, 5]: 2 µg/mL; MIC of antibiotic at fixed inhibitor concentration (4 mg/L) (Serratia marcescens S6; [5]): 0.5 µg/mL; MIC of antibiotic at fixed inhibitor concentration (4 mg/L) ([4]; Stenotrophomonas malthophilia 1AC736, MIC of antibiotic compound 1 with the labelled bridged monobactam of formula II and clavulanate, 4 mg/L each): 0.125 µg/mL

— patent US20160122320A1, “USEFUL COMBINATIONS OF MONOBACTAM ANTIBIOTICS WITH BETA-LACTAMASE INHIBITORS” (Basilea Pharmaceutica AG, priority 2005, published 2016)
